The target of series [1] is T1, SpCas9 (Streptococcus pyogenes serotype M1, UniProt Q99ZW2). Briefly: mKate2-disruption assay in HEK293T cells. The conditions noted are these: 1.5-5 μM, 24 h. Type of series: cell-based, S. pyogenes. The protocol:
mKate2-disruption assay. Approximately 8,000 cells/well were seeded in a 96-well plate 24 h before transient transfection with 100 ng of either CgRNA (Addgene Plasmid #64955) or T1gRNA (Addgene Plasmid #62717) plasmids using Lipofectamine 2000 (Life Technologies). Transfected cells were allowed to grow in the indicated amount of small molecule or DMSO for 24 h. Cells were then fixed using 4% paraformaldehyde and imaged with the HCS NuclearMask™ Blue Stain (Life Technologies) as the nuclear counter-staining agent. Imaging was performed with an ImageXpress Micro automated microscope (Molecular Devices) at 20× magnification under two excitation channels (blue and red) with 9 acquisition sites per well. Images were analyzed using the MetaXpress software to determine the % mKate2 positive cells and data was plotted using GraphPad Prism 6. The Z′-value was calculated following the formula: Z′=1−(3(σ1+σ2))/(|μ1−μ2|) where σ1 and σ2 are the standard deviations of CgRNA transfected wells and T1gRNA transfected wells respectively. μ1 and μ2 are the mean % RFP^+ cell population for CgRNA transfected wells and T1gRNA transfected wells, respectively.

A short description of the next series: physchem. The conditions noted are these: PBS, aqueous buffer.
In series [2] the target is T1, SpCas9. Kind of series: eGFP-disruption assay in U2OS.eGFP.PEST cells. The following applies: for inhibition of SpCas9 in the eGFP-disruption assay (in words) / inhibition at 15 µM: U2OS.eGFP.PEST cells; for inhibition at 15 µM: screen of structural analogs of BRD7087, 15 μM compound. Type of series: cell-based, S. pyogenes. The arrangement: host or cells: U2OS.eGFP.PEST. In a few lines:
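U2OS.eGFP-PEST cells were nucleofected with SpCas9 plus eGFP Site #1 sgRNA, as plasmids or as preformed RNP (20 pmol). Compound or DMSO was present for 24 h post-transfection. Fixed cells were imaged with a nuclear counterstain, and the % GFP-negative cell population was quantified by automated microscopy.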

Another series has as its target T2, SpCas9:gRNA (Streptococcus pyogenes serotype M1, UniProt Q99ZW2).
T2 construct: made in house; host or cells: E. coli Rosetta (DE3)
Briefly: In vitro DNA cleavage assay. Type of series: biochemical, S. pyogenes. The conditions noted are these: SpCas9 5 nM; read-out: apparent IC50. The method, then: In vitro DNA cleavage assay. Inhibition of SpCas9 nuclease activity was assessed in an in vitro DNA cleavage assay with a linearized substrate plasmid DNA. A 94 μL of preformed SpCas9:gRNA (5.3 nM) was incubated with a 3 μL DMSO solution of BRD0539 at the indicated concentrations (13.6-25 μM) for 30 min at room temperature followed by addition of 3 μL of 33.3 nM substrate DNA and incubation for additional 30 min at 37° C. The reaction was quenched by the addition of 2 μL of Proteinase K (Qiagen) for 10 min and then analyzed by 1% agarose gel and visualized by SYBR Gold (Thermofisher). The bands were quantified by Image J and plotted in GraphPad Prism.

A further series in a line: Plasma stability assay. Type of series: in vitro ADME. The following applies: 5 μM, 50% human plasma in PBS, 5 h. The method, then:
Plasma stability assay. Human plasma stability of the compounds was performed following a reported protocol (Di et al., 2005). BRD0539 (5 μM) was incubated with 50% human plasma (K2 EDTA, BioreclamationIVT) in PBS for 5 h in triplicate. Eucatropine (Aldrich) and verapamil (Acros) were included as the positive and negative control, respectively. The samples were analyzed by UPLC-MS (AB Sciex 4500 with Waters Acquity FTN) with compounds detected by […] mass spectrometer. All integration and analysis were performed using DiscoveryQuant software.

The target of series [3] is T1, SpCas9. Briefly: Reversibility of SpCas9 inhibition (pulse-chase, eGFP-disruption assay). Type of series: cell-based, S. pyogenes. Further details: made in house; host or cells: E. coli Rosetta (DE3). The conditions noted are these: 15 μM BRD0539 or SpCas9:gRNA:AcrIIA4 complex, media swap 2-24 h. The protocol:
Reversal of BRD0539-mediated inhibition of SpCas9 was performed in the eGFP-disruption assay where 2×10^5 U2OS.eGFP.PEST cells were nucleofected with preformed SpCas9:gRNA complex as previously discussed. Approximately 22,000 transfected cells/well were plated in 4 replicates in a 96-well plate (Corning® 3904) along with 15 μM of BRD0539 or DMSO. For AcrIIA4 reversibility experiment, a preformed SpCas9:gRNA (10 pmol) was incubated with AcrIIA4 (5×) for 10 min and then nucleofected to U2OS.eGFP.PEST cells following the aforementioned protocol. The media were swapped with the fresh media containing no BRD0539/AcrIIA4 at the indicated time point (2-24 h) and the cells were allowed to grow until 24 h post-nucleofection. Cells were then fixed using 4% paraformaldehyde and imaged with the HCS NuclearMask™ Blue Stain (Life Technologies) as the nuclear counter-staining agent. Imaging was performed with an ImageXpress Micro automated microscope (Molecular Devices) at 10× magnification under three excitation channels (blue, green and red) acquiring nine sites per well. Images were analyzed using MetaXpress software and data were plotted using GraphPad Prism 6.

≈ marks a conversion by molar mass, not a printed value. Entries after “also recorded” stand apart in the source; their conditions may differ. Where two headings read alike, the source gives them in different places.

T1 sequence (Q99ZW2 whole entry): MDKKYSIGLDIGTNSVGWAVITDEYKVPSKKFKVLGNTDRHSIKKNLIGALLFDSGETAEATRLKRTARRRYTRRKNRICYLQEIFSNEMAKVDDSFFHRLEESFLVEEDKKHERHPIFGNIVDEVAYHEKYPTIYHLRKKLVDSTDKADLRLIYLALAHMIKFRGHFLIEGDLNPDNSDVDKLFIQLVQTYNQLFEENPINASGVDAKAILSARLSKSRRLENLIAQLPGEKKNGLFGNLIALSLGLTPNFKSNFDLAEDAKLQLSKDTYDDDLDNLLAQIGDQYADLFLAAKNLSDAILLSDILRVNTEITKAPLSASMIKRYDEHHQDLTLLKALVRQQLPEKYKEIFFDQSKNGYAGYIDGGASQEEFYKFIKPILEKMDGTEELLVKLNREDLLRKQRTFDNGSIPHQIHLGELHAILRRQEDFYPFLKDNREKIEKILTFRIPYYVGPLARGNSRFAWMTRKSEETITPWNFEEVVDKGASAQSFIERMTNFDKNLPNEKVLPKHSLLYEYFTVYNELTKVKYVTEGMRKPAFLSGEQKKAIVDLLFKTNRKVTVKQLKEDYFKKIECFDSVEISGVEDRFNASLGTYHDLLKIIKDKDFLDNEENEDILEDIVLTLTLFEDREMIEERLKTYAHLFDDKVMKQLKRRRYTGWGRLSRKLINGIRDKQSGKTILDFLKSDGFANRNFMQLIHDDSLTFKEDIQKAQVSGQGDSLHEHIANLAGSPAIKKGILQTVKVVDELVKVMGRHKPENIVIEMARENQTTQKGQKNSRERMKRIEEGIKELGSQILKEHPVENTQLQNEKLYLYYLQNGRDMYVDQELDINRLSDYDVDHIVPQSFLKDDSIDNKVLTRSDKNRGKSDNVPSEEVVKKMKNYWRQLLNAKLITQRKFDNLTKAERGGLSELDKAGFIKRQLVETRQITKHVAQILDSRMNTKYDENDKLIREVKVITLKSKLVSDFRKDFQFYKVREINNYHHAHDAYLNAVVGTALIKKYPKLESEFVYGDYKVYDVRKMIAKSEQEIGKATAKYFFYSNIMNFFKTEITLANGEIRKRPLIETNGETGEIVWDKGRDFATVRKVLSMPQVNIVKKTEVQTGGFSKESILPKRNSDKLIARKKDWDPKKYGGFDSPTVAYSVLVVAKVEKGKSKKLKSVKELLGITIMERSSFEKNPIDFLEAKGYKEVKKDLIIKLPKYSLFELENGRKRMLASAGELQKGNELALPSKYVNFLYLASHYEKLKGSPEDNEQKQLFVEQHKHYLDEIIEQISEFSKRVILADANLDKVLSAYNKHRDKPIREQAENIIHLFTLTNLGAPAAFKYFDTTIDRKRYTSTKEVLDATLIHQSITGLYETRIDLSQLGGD
T2 sequence (Q99ZW2 whole entry): as above

Usually solubility stands for the dissolved amount per volume that the medium holds. The term inhibition denotes the relative decrease from the control value, in per cent. Take `OC[C@H]1Nc2ccc(-c3cccc(F)c3)cc2[C@H]2[C@@H]1CCN2Cc1ccncc1` [BRD7087, ((3aR,4S,9bR)-8-(3-Fluorophenyl)-1-(pyridin-4-ylmethyl)-2,3,3a,4,5,9b-hexahydro-1H-pyrrolo[3,2-c]quinolin-4-yl) methanol]: the “inhibition of SpCas9 in the mKate2 disruption assay (in words)” value on SpCas9 [1] was “dose-dependent inhibition”. In addition, the solubility at 24 h in the series “physchem” came to 75 µM (≈ 29.2 µg/mL). For the same compound, the “inhibition of SpCas9 in the eGFP-disruption assay (in words)” value against SpCas9 [2] is “dose-dependent inhibition”. In addition, on SpCas9 [2] (read-out: inhibition of SpCas9), the inhibition at 10 µM is ~44%.
As a reminder, the IC50 is the concentration needed to halve the response being measured. One may read the EC50 as the concentration at which the effect is half-maximal. In the case of `Cc1ccc(S(=O)(=O)N2CC[C@@H]3[C@H](CO)Nc4ccc(-c5ccccc5F)cc4[C@@H]32)cc1` [BRD0539, ((3aR,4R,9bR)-8-(2-fluorophenyl)-1-tosyl-2,3,3a,4,5,9b-hexahydro-1H-pyrrolo[3,2-c]quinolin-4-yl) methanol], the concentration for half-maximal inhibition (IC50) at SpCas9:gRNA was determined as 22 µM. For the same compound, the “human plasma stability (in words)” value in the series “Plasma stability assay” is “stable in human plasma”. For the same compound, the EC50 at SpCas9 [2] (EC50, dose-dependent inhibition of SpCas9, U2OS.eGFP.PEST cells, 24 h, tested from 2.8-17.3 μM) turned out to be 11.5 µM; at SpCas9 [2] (eGFP-disruption assay, read-out: apparent EC50), 11 µM. The “inhibition of SpCas9 in the eGFP-disruption assay (in words)” value on SpCas9 [2] is listed as “dose-dependent inhibitory activity; also recorded: able to inhibit”. Further, on SpCas9 [2] (eGFP-disruption assay), the “improvement in potency over BRD7087” value came to 1.8 fold. The inhibition at 15 µM on SpCas9 [2] (24 h, read-out: Average Inhibition activity) was determined as 64.2%; at SpCas9 [2] (24 h, read-out: Inhibition activity Rep 1) it was 61%; on SpCas9 [2] (24 h, read-out: Inhibition activity Rep 2), 67.4%. The “potency among the four stereoisomers” value on SpCas9 [2] (tested from 2.5-15 μM, 24 h) is “most potent”. Besides, the “reversibility of SpCas9 inhibition (in words)” value at SpCas9 [3] is listed as “reversible inhibition”.

The values are drawn from US12391685B2, “Inhibitors of RNA-guided nuclease target binding and uses thereof” (THE BROAD INSTITUTE, INC., priority 2018, dated 2025).
